Laboratory results from patent EP4631962A1, “PEPTIDE FOR CARTILAGE REGENERATION, AND USES THEREOF” (Caregen Co., Ltd., priority 2022, dated 2024).
Where a SMILES comes first, the peptide text is derived from it. Where no end group is shown, it is not given here.

Key:
[1] = tested on: human-derived chondrocyte cells (C28/I2, human chondrocyte cell line); experiment: CCK-8 assay, cytotoxicity in chondrocytes; format: cell-based; conditions: different concentrations, after 3 days, FIG. 1 and FIG. 2
Description: (§1) The cytotoxicity of Peptide-1 or Peptide-2 upon addition to human-derived chondrocyte cells (C28/I2, human chondrocyte cell line) and human adipose-derived mesenchymal stem cells (AD-MSC) was analyzed using a CCK-8 assay.
Specifically, human-derived chondrocytes were seeded in a 96-well plate at a density of 3 × 10^3 cells/well and cultured in DMEM medium (cat. 11995-065, Gibco) for 24 hours.

[2] = tested on: human adipose-derived mesenchymal stem cells (AD-MSC); experiment: CCK-8 assay, cytotoxicity in AD-MSC; format: cell-based; conditions: different concentrations, after 7 days, FIG. 3
Description: as §1

Row | Compound | toxicity (CCK-8 activity) [1] | toxicity (CCK-8 activity) [2]
1 | N[C@@H](CCC(=O)O)C(=O)N[C@@H](CC(=O)O)C(=O)N[C@@H](CC(=O)O)C(=O)O [Peptide-2, EDD] (H-Glu-Asp-Asp-OH) | did not exhibit toxicity | –
2 | KRRRKRK [Peptide-1, KRRRKRK] | did not exhibit toxicity | did not exhibit toxicity
